According to ChEMBL document CHEMBL3885861, “Open TG-GATES”:

Species: Rattus norvegicus
Assay: Open TG-GATES - Regimen: Single
Type: toxicity, organism-based, Sprague-Dawley
Parameters: regimen Single, gender Male, age 6 weeks
Conditions: in vivo, po, 0 mg/kg, route gavage, dose level Control; for APTT / Bas / Eos / Fbg / Hb / Ht / Lym / MCH / MCHC / MCV / Mono / Neu / PT / Plat / RBC / Ret / WBC: tissue Blood; for KIDNEY_L / KIDNEY_R / KIDNEY_TOTAL: tissue Kidney; for LIVER: tissue Liver; for A/G / ALP / ALT / AST / BUN / CRE / Ca / Cl / DBIL / GLC / IP / K / LDH / Na / PL / RALB / TBIL / TC / TG / TP / gamma-GTP: tissue Plasma

Compound: Clc1c(Cl)c(Cl)c(Cl)c(Cl)c1Cl [PERCHLOROBENZENE]
- TERMINAL_BW (3 h): 219.4 g
- APTT (3 h): 19.3 s
- Bas (3 h): 0.2%
- Eos (3 h): 0.8%
- Fbg (3 h): 218.8 mg/dL
- Hb (3 h): 13.5 g/dL
- Ht (3 h): 38.6%
- Lym (3 h): 75.4%
- MCH (3 h): 21.1 pg
- MCHC (3 h): 34.9%
- MCV (3 h): 60.3 fL
- Mono (3 h): 3.2%
- Neu (3 h): 18.6%
- PT (3 h): 11.9 s
- Plat (3 h): 122 x10_4/uL
- RBC (3 h): 639.6 x10_4/ul
- Ret (3 h): 7.1%
- WBC (3 h): 76.5 x10_2/uL
- KIDNEY_L (3 h): 1 g
- KIDNEY_R (3 h): 1 g
- KIDNEY_TOTAL (3 h): 2 g
- LIVER (3 h): 9.9 g
- A/G (3 h): 1.7
- ALP (3 h): 1008.2 IU/L
- ALT (3 h): 42.8 IU/L
- AST (3 h): 78 IU/L
- BUN (3 h): 11.4 mg/dL
- CRE (3 h): 0.4 mg/dL
- Ca (3 h): 10.9 mg/dL
- Cl (3 h): 103.4 meq/L
- DBIL (3 h): 0.07 mg/dL
- GLC (3 h): 187.2 mg/dL
- IP (3 h): 8.4 mg/dL
- K (3 h): 4 meq/L
- LDH (3 h): 216.2 IU/L
- Na (3 h): 140.6 meq/L
- PL (3 h): 156.8 mg/dL
- RALB (3 h): 3.5 g/dL
- TBIL (3 h): 0.1 mg/dL
- TC (3 h): 76.8 mg/dL
- TG (3 h): 103.4 mg/dL
- TP (3 h): 5.5 g/dL
- gamma-GTP (3 h): 1 IU/L
- TERMINAL_BW (6 h): 219.4 g
- APTT (6 h): 19.5 s
- Bas (6 h): 0.2%
- Eos (6 h): 0.6%
- Fbg (6 h): 230.4 mg/dL
- Hb (6 h): 13.5 g/dL
- Ht (6 h): 38.4%
- Lym (6 h): 79.6%
- MCH (6 h): 21.7 pg
- MCHC (6 h): 35.3%
- MCV (6 h): 61.5 fL
- Mono (6 h): 3.2%
- Neu (6 h): 14.8%
- PT (6 h): 11.7 s
- Plat (6 h): 134.1 x10_4/uL
- RBC (6 h): 624 x10_4/ul
- Ret (6 h): 7.2%
- WBC (6 h): 106.3 x10_2/uL
- KIDNEY_L (6 h): 1 g
- KIDNEY_R (6 h): 1 g
- KIDNEY_TOTAL (6 h): 2 g
- LIVER (6 h): 9.6 g
- A/G (6 h): 1.5
- ALP (6 h): 958.2 IU/L
- ALT (6 h): 32 IU/L
- AST (6 h): 70.6 IU/L
- BUN (6 h): 9.2 mg/dL
- CRE (6 h): 0.4 mg/dL
- Ca (6 h): 10.6 mg/dL
- Cl (6 h): 102.6 meq/L
- DBIL (6 h): 0.06 mg/dL
- GLC (6 h): 192.8 mg/dL
- IP (6 h): 9.4 mg/dL
- K (6 h): 4.2 meq/L
- LDH (6 h): 216.4 IU/L
- Na (6 h): 140.2 meq/L
- PL (6 h): 149.6 mg/dL
- RALB (6 h): 3.3 g/dL
- TBIL (6 h): 0.1 mg/dL
- TC (6 h): 77.6 mg/dL
- TG (6 h): 71.2 mg/dL
- TP (6 h): 5.6 g/dL
- gamma-GTP (6 h): 1.2 IU/L
- TERMINAL_BW (9 h): 215.4 g
- APTT (9 h): 21.3 s
- Bas (9 h): 0.2%
- Eos (9 h): 1%
- Fbg (9 h): 226.6 mg/dL
- Hb (9 h): 13.5 g/dL
- Ht (9 h): 38.6%
- Lym (9 h): 75%
- MCH (9 h): 21.1 pg
- MCHC (9 h): 35%
- MCV (9 h): 60.2 fL
- Mono (9 h): 2.6%
- Neu (9 h): 19.8%
- PT (9 h): 12.3 s
- Plat (9 h): 128.3 x10_4/uL
- RBC (9 h): 641.8 x10_4/ul
- Ret (9 h): 7%
- WBC (9 h): 90.9 x10_2/uL
- KIDNEY_L (9 h): 1 g
- KIDNEY_R (9 h): 0.9 g
- KIDNEY_TOTAL (9 h): 1.9 g
- LIVER (9 h): 8.7 g
- A/G (9 h): 1.6
- ALP (9 h): 849.2 IU/L
- ALT (9 h): 28.4 IU/L
- AST (9 h): 62.4 IU/L
- BUN (9 h): 9.4 mg/dL
- CRE (9 h): 0.3 mg/dL
- Ca (9 h): 10.7 mg/dL
- Cl (9 h): 103.6 meq/L
- DBIL (9 h): 0.068 mg/dL
- GLC (9 h): 198.8 mg/dL
- IP (9 h): 10.6 mg/dL
- K (9 h): 3.8 meq/L
- LDH (9 h): 175.8 IU/L
- Na (9 h): 142 meq/L
- PL (9 h): 129.4 mg/dL
- RALB (9 h): 3.3 g/dL
- TBIL (9 h): 0.1 mg/dL
- TC (9 h): 67.6 mg/dL
- TG (9 h): 46.6 mg/dL
- TP (9 h): 5.5 g/dL
- gamma-GTP (9 h): 1 IU/L
- TERMINAL_BW (24 h): 227.7 g
- APTT (24 h): 18.7 s
- Bas (24 h): 0.6%
- Eos (24 h): 0.8%
- Fbg (24 h): 216.6 mg/dL
- Hb (24 h): 13.7 g/dL
- Ht (24 h): 39.5%
- Lym (24 h): 80.8%
- MCH (24 h): 21.1 pg
- MCHC (24 h): 34.8%
- MCV (24 h): 60.6 fL
- Mono (24 h): 2.2%
- Neu (24 h): 14.8%
- PT (24 h): 11.9 s
- Plat (24 h): 129.9 x10_4/uL
- RBC (24 h): 651.8 x10_4/ul
- Ret (24 h): 6.2%
- WBC (24 h): 90.7 x10_2/uL
- KIDNEY_L (24 h): 1.1 g
- KIDNEY_R (24 h): 1.1 g
- KIDNEY_TOTAL (24 h): 2.1 g
- LIVER (24 h): 10.3 g
- A/G (24 h): 1.6
- ALP (24 h): 981.2 IU/L
- ALT (24 h): 31.2 IU/L
- AST (24 h): 70.6 IU/L
- BUN (24 h): 13.6 mg/dL
- CRE (24 h): 0.4 mg/dL
- Ca (24 h): 10.9 mg/dL
- Cl (24 h): 103 meq/L
- DBIL (24 h): 0.06 mg/dL
- GLC (24 h): 192.6 mg/dL
- IP (24 h): 7.5 mg/dL
- K (24 h): 4 meq/L
- LDH (24 h): 203.2 IU/L
- Na (24 h): 141.2 meq/L
- PL (24 h): 131.4 mg/dL
- RALB (24 h): 3.4 g/dL
- TBIL (24 h): 0.1 mg/dL
- TC (24 h): 70.2 mg/dL
- TG (24 h): 68.2 mg/dL
- TP (24 h): 5.5 g/dL
- gamma-GTP (24 h): 1.2 IU/L
